The values below are quoted from earlier work in patent US20240034717A1, “NOVEL POTASSIUM CHANNEL INHIBITORS” (Saniona A/S, priority 2020, published 2024).

For data set [1] the following is noted: cited from earlier work.
The subject of a further data set is mouse model of ARDS. Particulars: treatment; cited from earlier work.

With `Clc1ccccc1C(c1ccccc1)(c1ccccc1)n1cccn1` [TRAM-34], the Water solubility entry in data set [1] was “extremely low”. Also, the Gas exchange entry in the data set with mouse model of ARDS is given as “improvement was also demonstrated”.
`NC(=O)C(c1ccccc1)(c1ccc(F)cc1)c1ccc(F)cc1` [senicapoc]: the Water solubility entry in data set [1] is recorded as “extremely low”. For the same compound, the Gas exchange result with mouse model of ARDS is “improvement was also demonstrated”.
